Measured values: patent US5795887A, “Method of inducing cholecystokinin agonist activity using 1,4- Benzodiazepine compounds” (Glaxo Wellcome Inc., priority 1994, dated 1998)

B1: CCK: a peptide found in the gastrointestinal tract and the central nervous system (peptide, UniProt P06307 21-115, looked up)
Cholecystokinin: QPVPPADPAGSGLQRAEEAPRRQLRVSQRTDGESRAHLGALLARYIQQARKAPSGRMSIVKNLQNLDPSHRISDRDYMGWMDFGRRSAEEYEYPS
modifications: Cholecystokinin
notes: a peptide found in the gastrointestinal tract and the central nervous system

Tests used:
[1] = system: isolated guinea pig gallbladder; experiment: Isolated guinea pig gallbladder assay (contraction, % CCK-induced maximal response); settings: Cavia porcellus, Table 2
Experimental: 3. GUINEA PIG GALL BLADDER ASSAY
Gallbladders are removed from guinea pigs sacrificed by cervical dislocation. The isolated gallbladders are cleaned of adherent connective tissue and cut into two rings from each animal (2-6 mm in length). […] Tissues are connected via gold chains and stainless steel mounting wires to isometric force displacement transducers (Grass, Model FT03 D). Responses are then recorded on a polygraph (Grass, Model 7E).
Rings are gradually stretched (over a 120 min. period) to a basal resting tension of 1 gm which is maintained throughout the experiment. During the basal tension adjustment period, the rings are exposed to acetylcholine (10^-6 M) four times to verify tissue contractility. The tissues are then exposed to a submaximal dose of sulfated CCK-8 (Sigma, 3×10^-9 M). After obtaining a stable response, the tissues are washed out 3 times rapidly and every 5 to 10 minutes for 1 hour to reestablish a stable baseline.
As a final test, ACH (10 μM) is added to induce maximal contraction.

rat gastric emptying = experiment: Rat gastric emptying assay (methyl cellulose/phenol red test meal); type: in vivo; settings: intraperitoneally at 0.1 μmoles/kg; vehicle 66
Experimental: 7. RAT GASTRIC EMPTYING PROTOCOL
Methyl Cellulose (MC) Test Meal
1. Disperse MC in water at 80° C. at a final concentration of 1.5% under continuous stirring. Cool to room temperature.
2. Add Phenol Red (50 mg/100) to solution.
3. Keep solution stirring during entire experiment.
1. Food deprive animals for 18 hours.
2. Inject test drug/prop. glycol or prop. glycol alone intraperitoneally.
3. After 5 minutes, gavage 1.5 mL of Pheno Red/MC solution
1. After 20 minutes, decapitate animal
2. Clamp stomach at the pylorus and cardia ends, and rinse in 0.9% NaCl.
3. Place stomach in 100 mL of 0.1N NaOH, cut into small pieces, and homogenize for 30 seconds.
4. Let settle at room temperature for 60 minutes.
5. In centrifuge tube, add 5 mL of supernatant and 0.5 mL of trichloroacetic acid (29% w/v), and centrifuge at 2,800 rpm for 20 minutes.
6. Decant supernatant, and add 4 mL of 0.5N NaOH and read absorbance at a wavelength of 560 nm.
The standard stomach is determined from the phenol red recovered in stomachs of rats decapitated immediately after intragastric infusion of MC/phenol red.

[2] = literature background; cited from earlier work

| Molecule | % contraction ([1]; delivered at 3 μM) [%] | rat gastric emptying: % emptying (rat gastric emptying) [%] | % contraction ([1]; delivered at 30 μM) [%] | inhibition of gastric emptying in humans [2] |
| --- | --- | --- | --- | --- |
| COc1ccc(N(C(=O)CN2C(=O)C(Cc3n[nH]c4ccccc34)C(=O)N(c3ccccc3)c3ccccc32)C(C)C)cc1 (centres unmarked) [CCK-A agonist 1, 2[3(1H-Indazol-3-ylmethyl)-2,4-dioxo-5-phenyl-2,3,4,5-tetrahydro-benzo[b]1,4]diazepin1-ylN-isopropyl-N-(4-methoxy-phenyl) acetamide, reference compound] | 87 | 6 | – | – |
| COc1ccc(N(C(=O)CN2C(=O)C(Cc3n[nH]c4ccccc34)C(=O)N(c3ccccn3)c3ccccc32)C(C)C)cc1 (centres unmarked) [CCK-A agonist 2, reference compound] | – | 2.5 | 100 | – |
| B1 | – | – | – | inhibit gastric emptying in humans |
